Entries after “also recorded” stand apart in the source; their conditions may differ. Like-named read-outs stand apart in the source and are kept apart here. Square brackets hold non-standard residues; d marks the D form. Peptide text beside a SMILES is read from it. αMeP = C[C@@]1(C(=O)O)CCCN1
Key:
MeCP2 mutant mice = MeCP2 mutant mice (Tropea et al. 2009); cited from earlier work
[1] = tested on: children with Rett syndrome 2 to 10 years of age; settings: Phase 2 trial (O'Leary et al. 2018); cited from earlier work
[2] = Population pharmacokinetic model from 9 clinical studies; type: in vivo, human; settings: final population PK model, population mean
Excerpt: Data for the population PK model development of trofinetide came from 5 Phase 1 studies and 4 Phase 2 studies, including patients with Rett syndrome and other diseases. A total of 3058 trofinetide concentration records collected in 290 subjects were available for potential use in the analysis. A blend of full-profile and sparse data from 94 healthy volunteers, 93 patients with Rett syndrome (adult and pediatric), 103 patients with other diseases was available for this analysis.
Key steps for the development of the trofinetide population PK model were: 1) exploratory data analysis; 2) base structural model development via application, re-estimation, and refinement of a population PK model using pooled data from 9 clinical studies; 3) evaluation of covariate effects using forward selection; 4) full multivariable model evaluation: 5) backward elimination of covariates; 6) final model refinement; and 7) model evaluation. The continuous covariates evaluated included age, body weight, body mass index (BMI), estimated glomerular filtration rate, total bilirubin, alanine aminotransferase, and aspartate aminotransferase. The only categorical covariate evaluated was a combination of sex and disease state (SEXDS), where: SEXDS=0 for male healthy volunteers, SEXDS=1 for female healthy volunteers, SEXDS=2 for patients with Rett (female only), SEXDS=3 for patients with other disease A (male only), SEXDS=4 for male patients with other disease B, and SEXDS=5 for female patients with other disease B. The covariate analysis used a standard forward selection-backward elimination method to identify statistically significant (α=0.001) predictors of PK variability that also explained a sufficient proportion of interindividual variability (IIV) for the respective PK parameter upon which they were tested (that is, reducing IV by ≥5%). The final PK model was validated using a simulation-based, prediction-corrected visual predictive check (pcVPC) methodology to assess concordance between the model-based simulated data and the observed data.
A total of 2759 trofinetide plasma concentrations in 281 subjects were used in the development of the population PK model. The analysis dataset comprised subjects with a median (range) age of 22 (5 to 64) years and a median (range) body weight of 65.6 (15.1 to 139.6) kg, with 52.8% of the analysis population being male and 47.2% female.
The final population PK model for trofinetide was a 2-compartment model with first-order absorption, linear elimination, and 2 separate exponential error models for healthy volunteers and patients. The model included separate bioavailability terms for oral dosing (relative bioavailability [F1]) and dosing via gastric tube (F1G). Interindividual variability was estimated for first-order absorption (ka), clearance (CL), central volume of distribution (Vc), peripheral volume of distribution (Vp), and intercompartmental clearance (Q) using exponential error models.
A total of 4 covariate-parameter relationships were included in the final population PK model. […] Therefore, the final PK model included body weight as a significant predictor of both CL (as a power function) and Vc (as a power function), and SEXDS as a significant predictor of both CL (as a proportional function) and Vc (as a proportional function).

clinical = settings: human, in vivo
Description: These pharmacokinetic results are in agreement with the data obtained previously in healthy subjects and in adolescent and adult RTT patients.
Therefore, the upper levels of exposure in the 200 mg/kg BID dose level were considered to be effective and thus an appropriate target exposure level. Thus, dosing strategies were developed with the aim of providing a minimal target exposure of 800 μg/mL·h, corresponding approximately to the 90-100% AUC quantile of exposure (AUC0-12) observed in the children/adolescents study for the nominal dose of 200 mg/kg BID. With weight-banding, a greater proportion of subjects is expected to achieve the target drug exposure.

[3] = cited from earlier work
[4] = tested on: patients with Rett syndrome; test: CGI-I exposure-response model; parameters: species or system human; settings: refined population PK and E-R models
Description: Exposure-response analyses of the CGI-I scores were performed on data from patients with Rett syndrome with available trofinetide exposure estimates, plus placebo patients. All of the patients included in this analysis had at least 1 CGI-I score measured after trofinetide or placebo dosing. Data from 52 adult patients with Rett syndrome and 81 pediatric patients with Rett syndrome were pooled for this analysis.
The endpoints used for E-R efficacy modeling include CGI-I scores from two clinical studies and RSBQ scores from one clinical study. The CGI-I scores were measured on Days 5, 14, 17, and 26 and CGI-I scores were measured on Days 21, 28, 42, and 54. All patients received placebo for the first 14 days, so Day 14 was treated as the “true baseline” for trofinetide treatment. The RSBQ scores were collected on Days 14, 28, 42 and 54.
The overall procedures followed for the development of the E-R models for CGI-I and RSBQ scores were: 1) generation of individual estimates of exposure based on the population PK model; 2) exploratory data analysis; 3) base structural model development incorporating drug exposure effects; 4) evaluation of covariate effects, 5) final model refinement; and 6) model evaluation. Covariates evaluated in the analysis of efficacy endpoints were age, body weight, and BMI. […]

[5] = following oral administration; cited from earlier work
girls and women with RTT = test: Phase 2 clinical studies of trofinetide in Rett syndrome (efficacy, tolerability); type: in vivo, human
Description: Rett syndrome is a devastating disorder for which there is as yet no treatment beyond symptomatic care resulting in a great unmet medical need. […] Exposure-response analyses of RSBQ scores were performed on data from pediatric patients with Rett syndrome with available trofinetide exposure estimates, plus placebo patients. All of the patients included in this analysis had at least 1 RSBQ score measured after trofinetide or placebo dosing. The RSBQ E-R analysis dataset included only the 81 pediatric patients with Rett syndrome. The endpoints used for E-R efficacy modeling include CGI-I scores from two clinical studies and RSBQ scores from one clinical study. The CGI-I scores were measured on Days 5, 14, 17, and 26 and CGI-I scores were measured on Days 21, 28, 42, and 54. All patients received placebo for the first 14 days, so Day 14 was treated as the “true baseline” for trofinetide treatment. The RSBQ scores were collected on Days 14, 28, 42 and 54.

[6] = 50 mg/kg BID, pediatric RTT patients
[7] = 100 mg/kg BID, pediatric RTT patients
[8] = 200 mg/kg BID, pediatric RTT patients

## glycine-proline-glutamate [GPE]
MeCP2 mutant mice
  effect on Rett-like symptoms: reversed Rett-like symptoms

## mecasermin: recombinant human IGF-1, a compound related to trofinetide
[1]
  CSBS-DP-IT, active treatment group compared to placebo: evidence of benefit

## C[C@@]1(C(=O)N[C@@H](CCC(=O)O)C(=O)O)CCCN1C(=O)CN [trofinetide, (2S)-2-[[(2S)-1-(2-aminoacetyl)-2-methylpyrrolidine-2-carbonyl]amino]pentanedioic acid] (H-Gly-[αMeP]-Glu-OH)
[2]; both sexes, human, plasma, other: gastric tube, read-out: F1G: Gastric Tube Bioavailability
  bioavailability: 84.7%
[2]; both sexes, human, plasma, po, read-out: F1: Oral Bioavailability
  bioavailability: 77%
[2]; both sexes, human, plasma, read-out: CL: Central Clearance (converted)
  clearance: 192 mL/min
[2]
  Q: Distribution Clearance: 1.02 L/h
  Vc: Central Volume: 22.2 L
  Vc: Exponent of (WTKG/65) for Vc: 0.770
  Vc: Proportional Shift in Vc for Rett = 1: −0.562
  Vc: Proportional Shift in Vc for disease B = 1: −0.374
  Vp: Peripheral Volume: 53.0 L
  ka: First-Order Absorption Rate Constant: 0.195 h⁻¹
clinical
  effect of body weight on clearance and central volume of distribution: significant effect
clinical; 200 mg/kg
  AUC(0-t): ≥ 790 µg·h/mL
[3]; [6]
  median AUC(0-12ss): 139.4 µg·h/mL
  median Cmax: 17.7 µg/mL
[3]; [7]
  median AUC(0-12ss): 338.6 µg·h/mL
  median Cmax: 52.6 µg/mL
[3]; [8]
  median AUC(0-12ss): 505.1 µg·h/mL
  median Cmax: 82.2 µg/mL
[3]; Phase 2 studies
  accumulation, metabolic inhibition, or induction during treatment: no accumulation, metabolic inhibition, or induction
[3]; pediatric RTT patients
  pharmacokinetics across the dose range tested: linear pharmacokinetics
[4]
  association of higher trofinetide exposure with improvement in Rett syndrome (CGI-I and RSBQ scores) compared to placebo: greater improvement
[5]
  blood-brain barrier passage: crosses the blood-brain barrier
Girls and women with RTT; 200 mg/kg BID, Phase 2
  clinical efficacy versus placebo: evidence of clinical efficacy; also recorded: benefit compared to placebo
Girls and women with RTT; 200 mg/kg twice daily (BID), over 54 days, pediatric patients with Rett syndrome
  median percent change in RSBQ scores from baseline: −14.4%
Girls and women with RTT; exploratory analyses, Phase 2
  PK/PD relationship (exposure versus RSBQ, RTT-DSC, CGI-I): positive PK/PD relationship
Girls and women with RTT; two studies in girls and women with RTT
  tolerability: well tolerated

— US20220339138A1, “METHODS AND COMPOSITIONS FOR TREATMENT OF RETT SYNDROME” (ACADIA PHARMACEUTICALS INC., priority 2019, published 2022)
